Experimental data published in patent US10688200B2, “Urea-based prostate specific membrane antigen (PSMA) inhibitors for imaging and therapy” (Five Eleven Pharma Inc., priority 2015, dated 2020).

Columns and labels:
[1] = system: LNCaP tumor bearing nude mice; assay: Biodistribution of [68Ga]labeled ligand in PSMA positive tumor bearing nude mice; format: in vivo, mouse; details: 1 h post-injection, i.v., n = 3
Description: In a dish contained 5×10^6 cells of LNCaP in 50% Matrigel (Becton Dickinson, Heidelberg, Germany) were subcutaneously inoculated into the left shoulder of male 5- to 6-week-old CD-1 nu/nu mice (Charles River Laboratories). The tumors were allowed to grow for 8 weeks until approximately 0.5 cm^3 in size.
The ^68Ga-radiolabeled compounds were injected via tail vein (25 μCi per mouse; 0.1-0.2 nmol). At 1 h after injection, the animals were sacrificed. Organs of interest were dissected and weighed. The radioactivity was measured with a gamma counter and calculated as % ID/g.

[2] = system: PSMA-expressing LNCaP cells; assay: Cell binding and internalization; format: cell-based, human; details: 37° C.
Description: The cellular uptake and internalization kinetics of the [^68Ga]1a, [^68Ga]5a and [^68Ga]5b were determined using PSMA-expressing LNCaP cells. Furthermore, to be able to discriminate between total cellular activity (sum of membrane-associated and internalized activity) and internalized activity, all incubations were followed by a washing step with mild acid at 4° C. to remove specifically cell-surface bound radioligand by displacement.
LNCaP cells (in 6-well plates in triplicates) were incubated in RPMI-1640 medium with [^68Ga]1a, [^68Ga]5a or [^68Ga]5b for 0-2 h at 37° C. At the indicated time, the medium was removed and the cells were washed twice and then incubated with a mild acid buffer (50 mM glycine, 150 mM NaCl, pH 3.0) at 4° C. for 5 min. The supernatant (containing cell surface-bound radioactivity) was pooled and the cell pellet (containing internalized radioactivity) was collected with filter paper and then radioactivity in supernatant and cell pellet was counted on a gamma counter.
LNCaP cells were incubated with [^68Ga]1a, [^68Ga]5a and [^68Ga]5b for up to 2 h at 37° C. to determine whether the compound is internalized by endocytosis. The cells were then washed with a mild acid buffer to remove extracellularly bound compound.
Non specific binding (NSB) was evaluated by blocking with 20 μM PMPA. Specificity of cell uptake (SB) was calculated by subtracting the respective signals resulting from PMPA blocking. Values are expressed as % of applied radioactivity bound to 10^6 cells.

[3] = system: LNCaP (left shoulder) and PC-3 (right shoulder) tumor bearing nude mouse; assay: Small animal PET imaging with [68Ga]1a and [68Ga]4a; format: in vivo; details: 60 to 75 min after i.v. injection
Description: Male athymic mice (CD-1 nude, 5-6 weeks old) were obtained from Charles River, and were allowed to acclimatize at the vivarium for 1 week prior to implanting tumors. Mice were provided with food and water ad libitum. LNCaP tumors were induced on the left shoulder by sub-cutaneous (s.c.) injection of 5.0×10^6 cells in a 200 μL cell suspension of a 1:1 v/v mixture of media with reconstituted basement membrane (BD Matrigel™, Collaborative Biomedical Products Inc., Bedford, Mass.). Similarly, PC-3 tumors were induced on the right shoulder by s.c. injection of 2.0×10^6 cells. Palpable LNCaP tumors developed after a period of 4-5 weeks.
Dynamic small animal PET (APET) imaging studies of LNCaP (left shoulder) and PC-3 (right shoulder) tumor bearing nude mouse were performed with [^68Ga]1a and [^68Ga]4a. PET imaging studies were performed on a Phillips Mosaic small animal PET scanner, which has an imaging field of view of 11.5 cm. Under isoflurane anesthesia (1-2%, 1 L/min oxygen), the tumor-bearing nude mouse was injected with 0.5 mCi activity by an intravenous injection into the lateral tail vein. Data acquisition began at 30 min after the injection. Dynamic scans were conducted over a period of 1 h (5 min/frame; image voxel size 0.5 mm^3). Mouse was visually monitored for breathing, and a heating pad was used to maintain body temperature throughout the entire procedure. Images were reconstructed and a region of interest (ROI) analysis was performed using AMIDE software (http://amide.sourceforge.net/).
Representative animal PET images of LNCaP xenograft mice between 60 to 75 min after i.v. injection of [^68Ga]1a, and [^68Ga]4a are shown in FIGS. 3A-3F. […] FIGS. 3A-3F show sagittal, transaxial and coronal sections of APET images of nude mouse with LNCaP tumor at left shoulder and PC-3 tumor at right shoulder between 60 to 75 min post i.v. injection of [^68Ga]1a (FIGS. 3A-3C) and [^68Ga]4a (FIG. 3D-3F).

[4] = Biodistribution of radiotracers in normal mice; format: in vivo, mouse; details: normal male mice
In short: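 Male CD-1 mice received 35 μCi [^68Ga] radiotracer (0.2 nmole ligand) by tail vein. Four mice per time point sacrificed at 2, 30, 60 and 120 min p.i.; organs and blood weighed and gamma counted. %ID/g calculated against a standard dilution of the dose, decay-corrected.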

Organ distribution: Blood [1]: 0.37 ± 0.07 % dose/g
Organ distribution: Bone [1]: 0.21 ± 0.05 % dose/g
Organ distribution: Brain [1]: 0.04 ± 0.01 % dose/g
Organ distribution: Heart [1]: 0.59 ± 0.14 % dose/g
Organ distribution: Kidney [1]: 176 ± 5.66 % dose/g
Organ distribution: LNCaP tumor [1]: 10.07 ± 3.32 % dose/g
Organ distribution: Liver [1]: 0.62 ± 0.24 % dose/g
Organ distribution: Lung [1]: 2.44 ± 1.03 % dose/g
Organ distribution: Muscle [1]: 0.58 ± 0.24 % dose/g
Organ distribution: Pancreas [1]: 1.38 ± 0.63 % dose/g
Organ distribution: Skin [1]: 1.14 ± 0.58 % dose/g
Organ distribution: Spleen [1]: 18.48 ± 3.02 % dose/g
LNCaP tumor visualization in PET images, in words [3]: clearly visualized
PC-3 (PSMA negative) tumor uptake in PET images, in words [3]: did not show any uptakes
Biodistribution: Blood ([4]; 2 min): 7.75 ± 1.60 % dose/g
Biodistribution: Bone ([4]; 2 min): 1.77 ± 0.16 % dose/g
Biodistribution: Brain ([4]; 2 min): 0.25 ± 0.02 % dose/g
Biodistribution: Heart ([4]; 2 min): 3.32 ± 0.51 % dose/g
Biodistribution: Kidney ([4]; 2 min): 40.5 ± 7.81 % dose/g
Biodistribution: Liver ([4]; 2 min): 11.0 ± 0.99 % dose/g
Biodistribution: Lung ([4]; 2 min): 5.29 ± 0.82 % dose/g
Biodistribution: Muscle ([4]; 2 min): 1.68 ± 0.20 % dose/g
Biodistribution: Pancreas ([4]; 2 min): 1.91 ± 0.17 % dose/g
Biodistribution: Skin ([4]; 2 min): 2.42 ± 0.38 % dose/g
Biodistribution: Spleen ([4]; 2 min): 7.46 ± 0.84 % dose/g
Biodistribution: Blood ([4]; 30 min): 0.54 ± 0.08 % dose/g
Biodistribution: Bone ([4]; 30 min): 0.24 ± 0.08 % dose/g
Biodistribution: Brain ([4]; 30 min): 0.03 ± 0.00 % dose/g
Biodistribution: Heart ([4]; 30 min): 0.27 ± 0.09 % dose/g
Biodistribution: Kidney ([4]; 30 min): 108 ± 23.7 % dose/g
Biodistribution: Liver ([4]; 30 min): 0.35 ± 0.03 % dose/g
Biodistribution: Lung ([4]; 30 min): 1.14 ± 0.17 % dose/g
Biodistribution: Muscle ([4]; 30 min): 0.32 ± 0.01 % dose/g
Biodistribution: Pancreas ([4]; 30 min): 0.76 ± 0.11 % dose/g
Biodistribution: Skin ([4]; 30 min): 0.95 ± 0.20 % dose/g
Biodistribution: Spleen ([4]; 30 min): 2.95 ± 0.36 % dose/g
Biodistribution: Blood ([4]; 60 min): 0.33 ± 0.07 % dose/g
Biodistribution: Bone ([4]; 60 min): 0.23 ± 0.02 % dose/g
Biodistribution: Brain ([4]; 60 min): 0.02 ± 0.00 % dose/g
Biodistribution: Heart ([4]; 60 min): 0.34 ± 0.07 % dose/g
Biodistribution: Kidney ([4]; 60 min): 91.1 ± 11.6 % dose/g
Biodistribution: Liver ([4]; 60 min): 6.09 ± 0.86 % dose/g
Biodistribution: Lung ([4]; 60 min): 0.93 ± 0.14 % dose/g
Biodistribution: Muscle ([4]; 60 min): 0.19 ± 0.02 % dose/g
Biodistribution: Pancreas ([4]; 60 min): 0.59 ± 0.10 % dose/g
Biodistribution: Skin ([4]; 60 min): 0.44 ± 0.05 % dose/g
Biodistribution: Spleen ([4]; 60 min): 4.39 ± 0.42 % dose/g
Biodistribution: Blood ([4]; 120 min): 0.12 ± 0.03 % dose/g
Biodistribution: Bone ([4]; 120 min): 0.21 ± 0.05 % dose/g
Biodistribution: Brain ([4]; 120 min): 0.01 ± 0.00 % dose/g
Biodistribution: Heart ([4]; 120 min): 0.23 ± 0.19 % dose/g
Biodistribution: Kidney ([4]; 120 min): 83.9 ± 13.6 % dose/g
Biodistribution: Liver ([4]; 120 min): 2.56 ± 0.80 % dose/g
Biodistribution: Lung ([4]; 120 min): 0.77 ± 0.17 % dose/g
Biodistribution: Muscle ([4]; 120 min): 0.12 ± 0.03 % dose/g
Biodistribution: Pancreas ([4]; 120 min): 0.64 ± 0.23 % dose/g
Biodistribution: Skin ([4]; 120 min): 0.31 ± 0.12 % dose/g
Biodistribution: Spleen ([4]; 120 min): 5.07 ± 2.68 % dose/g
SMILES: O=C(O)CCc1ccc2c(c1)C[N+]13CC[N+]45CC(=O)[O][68Ga-3]14([O]C(=O)C3)([O]2)[O]c1ccc(CCC(=O)NCCCCCC(=O)NCCCC[C@H](NC(=O)N[C@@H](CCC(=O)O)C(=O)O)C(=O)O)cc1C5 (stereo partly shown) [[^68Ga]1a, reference compound]
Cell surface binding activity ([2]; 5 min): 3.21 ± 0.74 % ID/10^6 cells
Internalized activity ([2]; 5 min): 0.49 ± 0.21 % ID/10^6 cells
Cell surface binding activity ([2]; 15 min): 3.61 ± 0.47 % ID/10^6 cells
Internalized activity ([2]; 15 min): 2.51 ± 0.19 % ID/10^6 cells
Cell surface binding activity ([2]; 30 min): 2.95 ± 0.36 % ID/10^6 cells
Internalized activity ([2]; 30 min): 4.30 ± 0.72 % ID/10^6 cells
Cell surface binding activity ([2]; 60 min): 3.22 ± 0.81 % ID/10^6 cells
Internalized activity ([2]; 60 min): 7.43 ± 1.27 % ID/10^6 cells
Cell surface binding activity ([2]; 90 min): 3.41 ± 0.17 % ID/10^6 cells
Internalized activity ([2]; 90 min): 8.34 ± 0.16 % ID/10^6 cells
Cell surface binding activity ([2]; 120 min): 3.35 ± 0.04 % ID/10^6 cells
Internalized activity ([2]; 120 min): 8.82 ± 0.45 % ID/10^6 cells
